This is an account of results in patent US20240246952A1, “SMALL MOLECULE MODULATORS OF GLUCOCEREBROSIDASE ACTIVITY AND USES THEREOF” (Vanqua Bio, Inc., priority 2021, published 2024).

Each structure is given as a SMILES string. Bounds are passed on as bounds.

In this assay the target is T1, GCase (Homo sapiens, UniProt P04062).
T1 construct: endogenous in cells; host or cells: HeLa cells
T1 sequence (P04062 40-536): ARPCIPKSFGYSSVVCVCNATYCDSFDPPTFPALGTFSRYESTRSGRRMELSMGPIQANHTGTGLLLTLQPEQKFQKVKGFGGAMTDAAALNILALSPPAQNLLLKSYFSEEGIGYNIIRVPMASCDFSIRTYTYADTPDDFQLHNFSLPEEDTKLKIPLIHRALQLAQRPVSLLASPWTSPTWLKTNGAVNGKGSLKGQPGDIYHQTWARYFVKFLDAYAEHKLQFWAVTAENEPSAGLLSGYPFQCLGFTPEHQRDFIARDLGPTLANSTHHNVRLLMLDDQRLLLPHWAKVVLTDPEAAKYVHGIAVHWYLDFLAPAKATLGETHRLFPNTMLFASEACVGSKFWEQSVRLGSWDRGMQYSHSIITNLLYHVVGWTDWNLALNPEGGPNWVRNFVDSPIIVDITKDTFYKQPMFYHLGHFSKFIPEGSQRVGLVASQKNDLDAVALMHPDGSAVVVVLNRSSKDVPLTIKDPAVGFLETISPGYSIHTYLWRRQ
The assay can be described thus: activation of GCase in a live cell PFB assay in HELA cells. It counts as cell-based. As for the experimental part: Exemplary compounds were evaluated for activation of GCase in a live cell PFB assay in HELA cells (essentially as described in Ysselstein et al., “LRRK2 kinase activity regulates lysosomal glucocerebrosidase in neurons derived from Parkinson's disease patients” Nature Communications (2019) 10:5570).

In general, EC50 refers to the concentration needed to bring the measured effect to its halfway point. High values mean weaker potency, low ones greater potency. `FC(F)Cn1ncc2ncc(N3CCCC(c4nnc(-c5cccnc5C(F)(F)F)s4)C3)nc21` (centres unmarked) [Compound 7, 2-(1-(1-(2,2-Difluoroethyl)-1H-pyrazolo[3,4-b]pyrazin-6-yl)piperidin-3-yl)-5-(2-(trifluoromethyl)pyridin-3-yl)-1,3,4-thiadiazole] registered an EC50 of 10 to 50 µM.

With `c1ccc(-c2nnc(C3CCCN(c4cncc(-c5nncs5)n4)C3)s2)cc1` (centres unmarked) [Compound 1, 2-[3-(5-phenyl-1,3,4-thiadiazol-2-yl)piperidin-1-yl]-6-(1,3,4-thiadiazol-2-yl)pyrazine], the EC50 was in the range of 10 to 50 µM.

As to `O=C(c1ccc2ccn(C3COC3)c2c1)N1CCCC(F)(c2nnc(-c3cccc(C(F)(F)F)n3)s2)C1` (centres unmarked) [Compound 26, (3-Fluoro-3-(5-(6-(trifluoromethyl)pyridin-2-yl)-1,3,4-thiadiazol-2-yl)piperidin-1-yl)(1-(oxetan-3-yl)-1H-indol-6-yl)methanone], the EC50 was in the range of 10 to 50 µM.

In turn, `c1ccc(-c2nnc(C3CCCN(c4ncc5ccccc5n4)C3)s2)cc1` (centres unmarked) [Compound 14, 2-Phenyl-5-(1-(quinazolin-2-yl)piperidin-3-yl)-1,3,4-thiadiazole] displayed an EC50 of 10 to 50 µM.

Turning to `FC(F)(F)c1cccc(-c2nnc(C3(F)CCCN(c4cnc5ccccc5n4)C3)s2)n1` (centres unmarked) [Compound 13, 2-(3-Fluoro-3-{5-[6-(trifluoromethyl)pyridin-2-yl]-1,3,4-thiadiazol-2-yl}piperidin-1-yl)quinoxaline], the EC50 was 10 to 50 µM.

In turn, `CCn1cnc2ncc(N3CCCC(c4nnc(-c5ccccc5)s4)C3)nc21` (centres unmarked) [Compound 20, 2-(1-(1-Ethyl-1H-imidazo[4,5-b]pyrazin-6-yl)piperidin-3-yl)-5-phenyl-1,3,4-thiadiazole] had an EC50 of less than 10 µM.

`Fc1ccccc1-c1nnc(C2CCCN(c3ncc4ccccc4n3)C2)s1` (centres unmarked) [Compound 10, 2-(2-Fluorophenyl)-5-(1-(quinazolin-2-yl)piperidin-3-yl)-1,3,4-thiadiazole] gave an EC50 of 10 to 50 µM.

Turning to `FC(F)(F)c1cccc(-c2nnc(C3(F)CCCN(c4cncc(-c5nncs5)n4)C3)s2)n1` (centres unmarked) [Compound 8, 2-(3-Fluoro-3-{5-[6-(trifluoromethyl)pyridin-2-yl]-1,3,4-thiadiazol-2-yl}piperidin-1-yl)-6-(1,3,4-thiadiazol-2-yl)pyrazine], the EC50 lay within 10 to 50 µM.

`FC(F)(F)c1cccc(-c2nnc(C3(F)CCCN(c4cnc5cnn(CC6COC6)c5n4)C3)s2)n1` (centres unmarked) [Compound 27, 2-(3-Fluoro-1-(1-(oxetan-3-ylmethyl)-1H-pyrazolo[3,4-b]pyrazin-6-yl)piperidin-3-yl)-5-(6-(trifluoromethyl)pyridin-2-yl)-1,3,4-thiadiazole]: the EC50 was less than 10 µM.

As for `FC(F)Cn1ncc2ncc(N3CCCC(c4nnc(-c5ccnc(C(F)(F)F)c5)s4)C3)nc21` (centres unmarked) [Compound 5, 2-(1-(1-(2,2-difluoroethyl)-1H-pyrazolo[3,4-b]pyrazin-6-yl)piperidin-3-yl)-5-(2-(trifluoromethyl)pyridin-4-yl)-1,3,4-thiadiazole], the EC50 was less than 10 µM.

`O=C(c1ccc2cc[nH]c2c1)N1CCCC(c2nnc(-c3ccccc3C(F)(F)F)s2)C1` (centres unmarked) [Compound 9, (1H-Indol-6-yl)(3-(5-(2-(trifluoromethyl)phenyl)-1,3,4-thiadiazol-2-yl)piperidin-1-yl)methanone] showed a half-maximal effective concentration (EC50) of 10 to 50 µM.

`FC(F)(F)Cn1ncc2ncc(N3CCCC(F)(c4nnc(-c5cccc(C(F)(F)F)n5)s4)C3)nc21` (centres unmarked) [Compound 6, 2-(3-Fluoro-1-(1-(2,2,2-trifluoroethyl)-1H-pyrazolo[3,4-b]pyrazin-6-yl)piperidin-3-yl)-5-(6-(trifluoromethyl)pyridin-2-yl)-1,3,4-thiadiazole] displayed an EC50 of 10 to 50 µM.

As for `FC(F)Cn1ncc2ncc(N3CCCC(c4nnc(-c5ccc(C(F)(F)F)nc5)s4)C3)nc21` (centres unmarked) [Compound 21, 2-(1-(1-(2,2-Difluoroethyl)-1H-pyrazolo[3,4-b]pyrazin-6-yl)piperidin-3-yl)-5-(6-(trifluoromethyl)pyridin-3-yl)-1,3,4-thiadiazole], the EC50 was less than 10 µM.

On to `CCn1ccc2ncc(N3CCCC(c4nnc(-c5ccccc5)s4)C3)nc21` (centres unmarked) [Compound 3, 2-(1-(5-ethyl-5H-pyrrolo[2,3-b]pyrazin-3-yl)piperidin-3-yl)-5-phenyl-1,3,4-thiadiazole], for which the EC50 is 10 to 50 µM.

In turn, `COc1ncncc1-c1nnc(C2CCCN(c3cnc4ccccc4n3)C2)s1` (centres unmarked) [Compound 18, 2-(4-Methoxypyrimidin-5-yl)-5-(1-(quinoxalin-2-yl)piperidin-3-yl)-1,3,4-thiadiazole] came in with an EC50 of 10 to 50 µM.

`c1ccc(-c2nnc(C3CCCN(c4cnc5ccccc5n4)C3)s2)cc1` (centres unmarked) [Compound 11, 2-Phenyl-5-(1-(quinoxalin-2-yl)piperidin-3-yl)-1,3,4-thiadiazole] returned an EC50 of 10 to 50 µM.

Turning to `FC(F)Cn1ncc2ncc(N3C[C@@H]4[C@H](C3)[C@H]4c3nnc(-c4cccnc4C(F)(F)F)s3)nc21` [Compound 23, 2-((1R,5S,6r)-3-(1-(2,2-Difluoroethyl)-1H-pyrazolo[3,4-b]pyrazin-6-yl)-3-azabicyclo[3.1.0]hexan-6-yl)-5-(2-(trifluoromethyl)pyridin-3-yl)-1,3,4-thiadiazole], the EC50 is more than 100 µM.

On to `Fc1ccccc1-c1nnc(C2CCCN(c3cnc4ccccc4n3)C2)s1` (centres unmarked) [Compound 4, 2-(2-fluorophenyl)-5-(1-(quinoxalin-2-yl)piperidin-3-yl)-1,3,4-thiadiazole], for which the EC50 lay within 10 to 50 µM.

`FC(F)Cn1ncc2ncc(N3CCCC(c4nnc(-c5ccccc5)s4)C3)nc21` (centres unmarked) [Compound 19, 2-(1-(1-(2,2-Difluoroethyl)-1H-pyrazolo[3,4-b]pyrazin-6-yl)piperidin-3-yl)-5-phenyl-1,3,4-thiadiazole]: the EC50 is less than 10 µM.

`O=C(c1ccc2cc[nH]c2c1)N1CCCC(c2nnc(-c3ccccc3)s2)C1` (centres unmarked) [Compound 12, (1H-Indol-6-yl)(3-(5-phenyl-1,3,4-thiadiazol-2-yl)piperidin-1-yl)methanone] gave an EC50 of 10 to 50 µM.

On to `Cc1nnc(C2CCCN(c3ncc4ccccc4n3)C2)s1` (centres unmarked) [Compound 16, 2-methyl-5-(1-(quinazolin-2-yl)piperidin-3-yl)-1,3,4-thiadiazole], for which the EC50 was more than 100 µM.

`FC(F)Cn1ncc2ncc(N3CCCC(c4nnc(-c5cccc(C(F)(F)F)n5)s4)C3)nc21` (centres unmarked) [Compound 2, 2-(5-{1-[1-(2,2-difluoroethyl)pyrazolo[3,4-b]pyrazin-6-yl]piperidin-3-yl}-1,3,4-thiadiazol-2-yl)-6-(trifluoromethyl)pyridine]: the EC50 lay in the range of 10 to 50 µM.

`FC(F)(F)c1cccc(-c2nnc(C3(F)CCCN(c4cnc5cnn(C6COC6)c5n4)C3)s2)n1` (centres unmarked) [Compound 24, 2-(3-fluoro-1-(1-(oxetan-3-yl)-1H-pyrazolo[3,4-b]pyrazin-6-yl)piperidin-3-yl)-5-(6-(trifluoromethyl)pyridin-2-yl)-1,3,4-thiadiazole] showed an EC50 of more than 100 µM.

Regarding `FC(F)(F)Oc1ccccc1-c1nnc(C2(F)CCCN(c3cncc(-c4nncs4)n3)C2)s1` (centres unmarked) [Compound 29, 2-(1-(6-(1,3,4-Thiadiazol-2-yl)pyrazin-2-yl)-3-fluoropiperidin-3-yl)-5-(2-(trifluoromethoxy)phenyl)-1,3,4-thiadiazole], the EC50 lay within 10 to 50 µM.

`CCn1ncc2ncc(N3CCCC(c4nnc(-c5ccccc5)s4)C3)nc21` (centres unmarked) [Compound 15, 2-(1-(1-Ethyl-1H-pyrazolo[3,4-b]pyrazin-6-yl)piperidin-3-yl)-5-phenyl-1,3,4-thiadiazole] gave an EC50 of 50 to 100 µM.

The compound `O=C(c1ccc2cc[nH]c2c1)N1CCCC(c2nnc(-c3cccnc3C(F)(F)F)s2)C1` (centres unmarked) [Compound 17, (1H-Indol-6-yl)(3-(5-(2-(trifluoromethyl)pyridin-3-yl)-1,3,4-thiadiazol-2-yl)piperidin-1-yl)methanone] showed an EC50 of 10 to 50 µM.

Consider `FC(F)(F)Oc1ccccc1-c1nnc(C2CCCN(c3cncc(-c4nncs4)n3)C2)s1` (centres unmarked) [Compound 22, 2-(1-(6-(1,3,4-thiadiazol-2-yl)pyrazin-2-yl)piperidin-3-yl)-5-(2-(trifluoromethoxy)phenyl)-1,3,4-thiadiazole], for which the EC50 was less than 10 µM.

In the case of `O=C(c1ccc2ccn(CC3COC3)c2c1)N1CCCC(F)(c2nnc(-c3cccc(C(F)(F)F)n3)s2)C1` (centres unmarked) [Compound 25, (3-Fluoro-3-(5-(6-(trifluoromethyl)pyridin-2-yl)-1,3,4-thiadiazol-2-yl)piperidin-1-yl)(1-(oxetan-3-ylmethyl)-1H-indol-6-yl)methanone], the EC50 was 10 to 50 µM.

For `FC(F)Cn1ncc2ncc(N3C[C@@H]4[C@H](C3)[C@H]4c3nnc(-c4ccccc4)s3)nc21` [Compound 28, 2-((1R,5S,6R)-3-(1-(2,2-Difluoroethyl)-1H-pyrazolo[3,4-b]pyrazin-6-yl)-3-azabicyclo[3.1.0]hexan-6-yl)-5-phenyl-1,3,4-thiadiazole], the EC50 is 10 to 50 µM.
